Laboratory results as given in US8541243B2, “Method for assessment of folate phenotypes, disease risk and response to therapy” (The Trustees of the University of Pennsylvania, priority 2008, dated 2013).

Tests used:
[1] = Stability of folates under the acidic/basic conditions of sample work-up; type: physicochemical
Experimental: (§1) An aliquot of the resulting solution (50 μL) was then analyzed by LC-MRM/MS.
5-FTHF and 10-FTHF undergo dehydration to 5,10-MTHF under acidic conditions in a pH-dependent manner (FIG. 1). In contrast, under neutral or alkaline pH conditions, 5,10-MTHF is converted into 10-FTHF, which then slowly interconverts with 5-FTHF. These different forms of folate are present in RBCs primarily in polyglutamated forms. […] This made it difficult to reliably quantify the individual amounts of 5-FTHF, 10-FTHF, and 5,10-MTHF in the RBCs. Conversion of 5-FTHF and 10-FTHF into 5,10-MTHF proceeded quantitatively at pH 1.5. As a result, it was possible to accurately quantify the pool of folate precursors available for conversion into 5,10-METHF simply by acidifying the RBC extract (FIG. 1). […] They were then acidified to pH 1.5 with 1M HCl ready for analysis of the 5-METHF precursors as 5,10-MTHF (FIG. 1). The [^13C5]-5-FTHF internal standard was quantitatively converted into [^13C5]-5,10-MTHF, which made it possible to accurately quantify the amount of unlabeled 5-FTHF and 10-FTHF, as well as any 5,10-MTHF that had been present in the sample originally. […] However, it is so rapidly utilized in cellular processes by enzymes such as MTHFR, serine hydroxymethyltransferase, and thymidylate synthase (FIG. 6) that it is unlikely to be present in significant quantities.

[2] = tested on: RBC folate; experiment: RBC folate derivatives (LC-MRM/MS) before and after low dose MTX treatment of arthritis patients; type: in vivo, human; conditions: ratio, 24 wk of MTX, Caucasians, 115 pairs
Experimental: Eight calibration standards were prepared in the range 4.5 to 900 nmol/L in 1% ascorbic acid and 10 mM 2-mercaptoethanol (to prevent oxidation). To 500 μL of whole blood (1:10 diluted with 1% ascorbic acid) was added 20 μL of internal standard solution (150 pg/μL each of [^13C5]-FA, [^13C5]-THF, [^13C5]-5-MTHF, and [^13C5]-5-FTHF). For hydrolysis of folylpolyglutamates, 1N sodium hydroxide (6 μL) was added to each tube to adjust the pH to 5.0 and the samples were mixed immediately. In selected experiments, pteroylhepta-γ-L-glutamic acid (5 ng) was added to replicate […] RBC preparations from five different subjects in order to monitor the efficiency of folylpolyglutamate hydrolysis. […]
as §1
RBC folate concentrations were calculated according to the method of Lamers et al.(2006, Am. J. Clin. Nutr. 84(1):156-61): RBC folate={(whole blood folate×100)−[plasma folate×(100−hematocrit)]}/hematocrit.
Serum MCP-1 levels were measured using a human MCP-1 ELISA kit (BD Biosciences) according to the manufacturer's instructions. Total homocysteine (tHcy) and both plasma and red blood cell (RBC) folate derivatives were measured using stable isotope dilution liquid chromatography, multiple reaction monitoring, mass spectrometry (LC/MRM/MS) as described elsewhere herein. […]

[3] = tested on: plasma folate; experiment: Plasma folates (LC-MRM/MS) before and after low dose MTX treatment of arthritis patients; type: in vivo, human; conditions: 24 wk of MTX, Caucasians, 119 pairs
Experimental: To each plasma sample (300 μL) was added water (200 μL) containing 1% ascorbic acid and 10 mM 2-mercaptoethanol. After the addition of 20 μL internal standard solution (150 pg/μL each of [^13C5]-FA, [^13C5]-THF, [^13C5]-5-MTHF, and [^13C5]-5-FTHF) the samples were thoroughly mixed. Water (1 mL) containing 1% ascorbic acid and 1% methanol was added prior to purification using SPE columns.
The following experiments were designed to assess the phenotypic changes elicited by low dose methotrexate (MTX) treatment. MTX has been widely used as the anti-inflammatory and immunomodulatory agent for the treatment of patients with rheumatoid arthritis and other inflammatory disorders by weekly low-dose (7.5-25 mg).
This indicates a quantitative and qualitative modification of folate phenotype (even though folic acid supplements were prescribed along with the MTX) that results in elevated MCP-1 concentrations (p<0.0001).

SMILES	Stability under both acidic and basic conditions [1]	RBC (5,10MT/5MTH) (mean ± SD) ([2]; baseline 0.026 ± 0.095)	RBC(THF/5MTH) (mean ± SD) ([2]; baseline 0.118 ± 0.387)	Plasma FA (mean ± SD) ([3]; baseline 7.10 ± 26.62, folic acid supplements prescribed along with MTX)	Plasma 5MTH (mean ± SD) ([3]; baseline 53.14 ± 31.14)
Nc1nc2c(c(=O)[nH]1)N1CN(c3ccc(C(=O)N[C@@H](CCC(=O)O)C(=O)O)cc3)CC1CN2 (some centres unmarked) [5,10-METHF, 5,10-methylenetetrahydrofolic acid]	extremely unstable	–	–	–	–
CN(Cc1cnc2nc(N)nc(N)c2n1)c1ccc(C(=O)N[C@@H](CCC(=O)O)C(=O)O)cc1 [MTX, methotrexate]	–	0.051 ± 0.241	0.175 ± 0.757	36.20 ± 63.60	39.90 ± 31.51
